Reference: PubChem BioAssay (NCI)
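Cultured in 96-well plates, cells were exposed to test compound for 48 hours across five concentrations. TGI is the concentration that stops growth completely.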

Legend:
Assay in all cases: inhibition of tumour cell growth, NCI panel, 48 h
OVCAR-4 ovarian = test system: OVCAR-4 ovarian
SF-268 CNS = test system: SF-268 CNS
MDA-MB-231 breast = test system: MDA-MB-231 breast
OVCAR-3 ovarian = test system: OVCAR-3 ovarian
SR leukemia = test system: SR leukemia
U251 CNS = test system: U251 CNS
OVCAR-8 ovarian = test system: OVCAR-8 ovarian
PC-3 prostate = test system: PC-3 prostate
HOP-92 NSCLC = test system: HOP-92 NSCLC
SNB-75 CNS = test system: SNB-75 CNS
MOLT-4 leukemia = test system: MOLT-4 leukemia
HL-60(TB) leukemia = test system: HL-60(TB) leukemia
NCI-H522 lung = test system: NCI-H522 lung
SW-620 colon = test system: SW-620 colon
HCC-2998 colon = test system: HCC-2998 colon
SK-MEL-2 melanoma = test system: SK-MEL-2 melanoma
CAKI-1 renal = test system: CAKI-1 renal

Row | Structure (SMILES) | TGI (OVCAR-4 ovarian) [µM] | TGI (SF-268 CNS) [µM] | TGI (MDA-MB-231 breast) [µM] | TGI (OVCAR-3 ovarian) [µM] | TGI (SR leukemia) [µM] | TGI (U251 CNS) [µM] | TGI (OVCAR-8 ovarian) [µM] | TGI (PC-3 prostate) [µM] | TGI (HOP-92 NSCLC) [µM] | TGI (SNB-75 CNS) [µM] | TGI (MOLT-4 leukemia) [µM] | TGI (HL-60(TB) leukemia) [µM] | TGI (NCI-H522 lung) [µM] | TGI (SW-620 colon) [µM] | TGI (HCC-2998 colon) [µM] | TGI (SK-MEL-2 melanoma) [µM] | TGI (CAKI-1 renal) [µM]
1 | O=C1Cc2c([nH]c3cc(Br)ccc23)-c2ccccc2N1 | 38.2 | 89.9 | > 100 | 83.4 | > 100 | 31.8 | 73.9 | 44.3 | 88.3 | 44.9 | 40.9 | > 100 | 52.7 | 52.5 | – | – | –
2 | CC1(C)O[C@@H](CP(c2ccc3ccccc3c2)c2ccc3ccccc3c2)[C@H](CP(c2ccc3ccccc3c2)c2ccc3ccccc3c2)O1 | > 100 | > 100 | > 100 | > 100 | > 100 | > 100 | > 100 | > 100 | – | > 100 | > 100 | – | > 100 | > 100 | > 100 | > 100 | > 100
3 | O=c1c2cc([N+](=O)[O-])cnc2sn1-c1ccc(Br)cc1 | 82 | 75.1 | 73.4 | > 100 | 60.7 | > 100 | > 100 | > 100 | 54.7 | > 100 | 90.3 | 80.7 | 22.6 | > 100 | > 100 | 85.5 | –
4 | O=c1[nH]c(=S)c2[nH]c(=O)n(-c3ccccc3)c2[nH]1 | > 100 | > 100 | > 100 | > 100 | > 100 | > 100 | > 100 | > 100 | > 100 | – | > 100 | – | > 100 | > 100 | > 100 | > 100 | > 100
5 | COc1cccc(-c2cc(=O)c3cc(N4CCCC4)ccc3[nH]2)c1 | > 10 | > 10 | 0.598 | < 0.001 | < 0.001 | – | 0.00128 | > 10 | > 10 | > 10 | > 10 | < 0.001 | < 0.001 | > 10 | 0.013 | – | > 10
6 | Cc1c(C=C(C#N)C#N)c(=O)n(C)c(=O)n1C | > 100 | > 100 | > 100 | > 100 | > 100 | > 100 | > 100 | > 100 | > 100 | > 100 | > 100 | > 100 | > 100 | > 100 | – | > 100 | > 100
7 | C1COCCOP2(N3CC3)=NP(N3CC3)(=NP(N3CC3)(N3CC3)=N2)OCCOCCO1 (stereo not drawn) | > 100 | > 100 | > 100 | > 100 | > 100 | > 100 | > 100 | > 100 | – | > 100 | > 100 | > 100 | > 100 | > 100 | – | – | > 100
8 | OCC1(CNc2cc(Cl)ncn2)CCC1 | > 100 | > 100 | > 100 | > 100 | > 100 | > 100 | > 100 | > 100 | > 100 | > 100 | > 100 | > 100 | > 100 | > 100 | – | > 100 | –
9 | O=Cc1ccc2[nH]c(=O)oc2c1 | – | > 100 | > 100 | > 100 | > 100 | > 100 | > 100 | > 100 | – | – | > 100 | > 100 | – | > 100 | – | > 100 | > 100
10 | COc1ccc(-c2cc(-c3ccccc3)nc(N)n2)c(O)c1 | > 100 | > 100 | > 100 | > 100 | > 26.2 | > 100 | > 100 | > 100 | > 100 | > 100 | > 100 | > 20.6 | > 100 | > 100 | > 100 | > 100 | –
11 | COC(=O)/C=C/N1CC1 | > 10 | > 10 | > 10 | > 10 | > 10 | > 10 | > 10 | > 10 | – | > 10 | > 10 | > 10 | > 10 | – | > 10 | > 10 | > 10
12 | CC(C)C(=O)CP(=O)(O)O | > 100 | > 100 | > 100 | > 100 | > 100 | > 100 | > 100 | > 100 | > 100 | > 100 | > 100 | > 100 | > 100 | > 100 | – | > 100 | > 100
13 | CCOC(=O)c1c(CN2CCOCC2)n(Cc2ccccc2)c2c1cc(O)c1nc(C)c(C)nc12 | > 100 | 54.4 | > 100 | > 100 | > 100 | 74.3 | 53.4 | 92.4 | – | 32.7 | > 100 | > 100 | – | > 100 | > 100 | 44.5 | 64.9
14 | CCCC(=O)OC1=C(c2ccccc2)Sc2ccccc2-n2cccc21 | > 10 | > 10 | > 10 | – | > 10 | – | > 10 | > 10 | > 10 | > 10 | > 10 | > 10 | – | > 10 | > 10 | – | > 10
15 | CC(C)[Si](OC1=CCC[C@H]2NC(=O)[C@@H](Cc3ccc([N+](=O)[O-])cc3)[C@@]12C)(C(C)C)C(C)C | 17.1 | 24.8 | 28.1 | 11.7 | 8.02 | – | 24.4 | 12 | – | 23.8 | > 100 | 24.4 | 17.9 | – | 4.22 | 28 | 26.2
16 | CCN(CC)c1ccc2cc(-c3csc(-c4ccc(N(C)C)cc4)n3)c(=O)oc2c1 | > 100 | > 100 | > 100 | – | > 100 | > 100 | > 100 | > 100 | > 100 | > 100 | > 100 | > 100 | > 100 | > 100 | > 100 | > 100 | > 100

Row | Structure (SMILES) | TGI (OVCAR-4 ovarian) [µM] | TGI (SF-268 CNS) [µM] | TGI (MDA-MB-231 breast) [µM] | TGI (OVCAR-3 ovarian) [µM] | TGI (SR leukemia) [µM] | TGI (U251 CNS) [µM] | TGI (OVCAR-8 ovarian) [µM] | TGI (PC-3 prostate) [µM] | TGI (HOP-92 NSCLC) [µM] | TGI (SNB-75 CNS) [µM] | TGI (MOLT-4 leukemia) [µM] | TGI (HL-60(TB) leukemia) [µM] | TGI (NCI-H522 lung) [µM] | TGI (SW-620 colon) [µM] | TGI (HCC-2998 colon) [µM] | TGI (SK-MEL-2 melanoma) [µM] | TGI (CAKI-1 renal) [µM]
17 | S=c1sscc1N1CCSc2ssc(=S)c21 | 29.8 | > 100 | > 100 | – | > 100 | 38.2 | 18.9 | > 100 | 31 | 43.5 | > 100 | > 100 | 59.7 | > 100 | > 100 | > 100 | > 100
18 | NC(=O)N/N=C/c1ccccc1O | > 100 | > 100 | > 100 | – | > 100 | > 100 | > 100 | > 100 | > 100 | > 100 | > 100 | > 100 | – | > 100 | > 100 | > 100 | > 100
19 | Cc1ccc(NCc2nnc3c(-c4ccccc4)nc4ccccc4n23)cc1 | > 100 | > 100 | > 100 | > 100 | > 100 | > 100 | > 100 | 52.9 | 50 | – | > 100 | 68.3 | > 100 | > 100 | > 100 | 65.5 | > 100
20 | N=c1oc2ccc(Cl)cc2cc1C(=O)NC1CCCCC1 | > 100 | > 100 | > 100 | > 100 | > 100 | > 100 | > 100 | > 100 | > 100 | > 100 | > 100 | > 100 | – | > 100 | 89.1 | > 100 | > 100
21 | NNC(=O)CSc1nnc(CCCCCCCCc2nnc(SCC(=O)NN)o2)o1 | > 100 | > 100 | > 100 | – | > 100 | > 100 | > 100 | > 100 | > 100 | > 100 | > 100 | > 100 | > 100 | > 100 | > 100 | > 100 | > 100
22 | C[Si](C)(C)C#CCOC=C1CC1 | > 100 | > 100 | > 100 | – | > 100 | > 100 | > 100 | > 100 | – | > 100 | > 100 | > 100 | > 100 | > 100 | > 100 | > 100 | > 100
23 | Cn1c2c(c3c(=O)[nH]ncc31)CCCc1ccccc1-2 | > 100 | 98.8 | > 100 | 86.4 | 51.8 | 92.1 | 83.5 | > 100 | 41.3 | > 100 | 21.6 | 16.3 | 38.3 | > 100 | – | 40.2 | 69.9
24 | COc1cc(OC)cc(Oc2nc3c(N)cc(C(F)(F)F)cc3nc2-c2ccccc2)c1 | > 100 | > 100 | 98.7 | – | 75.7 | > 100 | > 100 | > 100 | > 100 | > 100 | 81.1 | 52.4 | – | > 100 | > 100 | 55.5 | > 100
25 | O=c1cc(-c2cccc(Br)c2)[nH]c2cc3c(cc12)OCO3 | > 100 | 24 | 23.1 | 9.5 | > 100 | 11.4 | 17.3 | > 100 | – | 10.5 | > 100 | > 100 | 18.3 | > 100 | 63 | 6.67 | –
26 | CCCNC(=O)c1cc(NC(=O)c2cc(NC(=O)CCS(=O)(=O)OC)cn2C)cn1C | > 73.6 | – | > 70.8 | 27.4 | > 100 | > 100 | 30.3 | 98.9 | 47 | 48.4 | > 87.8 | – | 6.07 | > 100 | > 100 | 53.8 | > 75.3
27 | C=C(C)COC(=O)COCC(=O)OCC(=C)C | > 100 | > 100 | > 100 | > 100 | > 100 | > 100 | > 100 | > 100 | > 100 | > 100 | > 100 | – | – | > 100 | > 100 | – | > 100
28 | CCCCn1c2c(n(CCCC)c1=[Se])-c1c(n(CCCC)c(=[Se])n1CCCC)S[Se][Se]S2 | 25.8 | > 100 | 32.2 | 25 | > 100 | 32.2 | 30.5 | 34.7 | 5.93 | 44.7 | > 90.6 | – | 3.34 | 19.6 | > 100 | 45.9 | 17.7
29 | CCCC(=O)Oc1cc(OC(=O)CCC)c2c(C)cc(=O)oc2c1 | > 100 | > 100 | > 100 | > 100 | 76.9 | > 100 | > 100 | > 100 | > 100 | > 100 | > 100 | – | – | > 100 | – | > 100 | –
30 | CN1C(=O)C(O)C[C@@H]1c1ccc(F)cc1 (stereo partly drawn) | > 100 | – | > 100 | > 100 | > 100 | > 100 | – | > 100 | > 100 | – | > 100 | > 100 | – | – | > 100 | > 100 | > 100
31 | COc1ccccc1NC1=NCC(C)S1 (stereo not drawn) | – | > 100 | > 100 | > 100 | > 100 | > 100 | > 100 | > 100 | > 100 | > 100 | > 100 | > 100 | > 100 | > 100 | > 100 | > 100 | > 100
